Reference: PubChem BioAssay AID2060884 (Molecular Pharmacology Branch, DTP, NCI, 2025)
Several values for one entry are separate records, joined by “and”; a condition that tells them apart may be missing. Equal entries are not always repeated.

Test system: NCI-H929 complex spheroids, viability % test/control
Assay: Anticancer human tumor NCI-H929 cell line growth inhibition [RAS];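 also: compound exposure lasted seven days before viability was read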
Conditions: for viability, T/C: stronger effect = lower value
Source text: RAS pathway inhibitors in Combinations in Complex Spheroids
A high-throughput screen of multi-cell type tumor spheroids was designed to identify active combinations of RAS pathway inhibitors and targeted small molecules. Complex spheroids include a stromal component modeled by human endothelial cells (HUVEC) and fibroblasts modeled by human mesenchymal stem cells (MSCs). The concentration ranges selected for each drug and investigational agent were based upon clinically achievable concentrations if the clinical Cmax of the agent was known.
Compounds. The drugs and investigational agents: abemaciclib (NSC768073), cobimetinib (NSC768068), divarasib (GDC6063, NSC841802), docetaxel (NSC628503), GDC-1971 (RLY-1971, NSC841576), gemcitabine (NSC613327), inavolisib (NSC800729), ipatasertib (NSC767898), KB-0742 (NSC834161), MRTX-1133 (NSC836407), osimertinib (NSC779217), RMC-4630 (NSC839698), RMC-6236 (NSC851965), RMC-6291 (NSC852671), Ro-3306 (NSC812927), sapanisertib (NSC764658), SN-38 (NSC673596), staurosporine (NSC755774), SY5609 (NSC837396), and tovorafenib (DAY101, NSC766906), were obtained from the National Cancer Institute (NCI) Developmental Therapeutics Program Chemical Repository. The FDA-approved anticancer drug set is available from the NCI Developmental Therapeutics Program. […] The stock solutions were prepared in dimethyl sulfoxide (DMSO, Sigma-Aldrich, St. Louis, MO, cat. D2650) at 800-fold the tested concentration and stored at -70 degrees C prior to their use. All drugs and investigational agents were tested over a range starting from a high concentration at or near the clinical Cmax and decreasing in half-log increments. If the clinical Cmax for an agent had not been determined, the highest concentration tested was 10 microM.
Cell Culture. All cells were maintained in an incubator at 37 degrees C and 5% CO2 with 95% humidity. The PDC lines were cultured according to standard operating procedures established by the NCI PDMR. All PDCs were thawed and cultured in Matrigel-coated flasks prepared with a working solution of 1X Ham's F-12 nutrient mix, without supplementation (Invitrogen, Waltham, MA, cat. 11765054), 100 U/mL penicillin-streptomycin (Invitrogen, cat. 15140122), and 2.5% Matrigel (Corning Inc., Corning, NY, cat. 354248) for the first three passages. The 362531-283-R-J2-PDC and 782815-120-R-J1-PDC lines were cultured in 6C/Colon 1B media, which includes advanced DMEM/F-12 (Thermo Fisher Scientific, cat. 12634028), 10 mM HEPES (Thermo Fisher Scientific, cat. 15630080), 1X GlutaMAX supplement (Thermo Fisher Scientific, cat. 35050061), 0.1 mg/mL primocin (InvivoGen, San Diego, CA, cat. ant-pm-2), 10% defined fetal bovine serum, heat inactivated (HyClone Laboratories Inc., Logan, UT, cat. SH30070.03HI), 50% L-WRN conditioned media (ATCC, cat. CRL-3276), 1.25 mM N-Acetyl-L-cysteine (Sigma-Aldrich, cat. A9165), 10 mM nicotinamide (Sigma-Aldrich, cat. N0636), 1X B-27 supplement (Thermo Fisher Scientific, cat. 17504044), 1X N-2 supplement (Thermo Fisher Scientific, cat. 17502048), 50 ng/mL human EGF (Thermo Fisher Scientific, cat. PHG0311), and 10 microM Y-27632 dihydrochloride (Tocris Bioscience, cat. 1254). The K12877-001-R-J1-PDC line was cultured in 6I media, which includes all 6C/Colon 1B media plus 10 ng/mL human FGF-10 (PeproTech, cat. 100-26), 1 ng/mL human FGF-2 (PeproTech, cat. 100-18B), 1 µM prostaglandin E2 (Tocris Bioscience, cat. 2296), […] hydrocortisone (Sigma-Aldrich, cat. H4001), and […] bovine insulin (Sigma-Aldrich, cat. I6634). The K86415-001-R-J1-PDC line was cultured in 6D media, which includes all 6C/Colon 1B media components minus the L-WRN conditioned media. The 485176-168-R4-J1-PDC was cultured in PANC media, which includes all 6C/Colon 1B media plus 100 ng/mL human FGF-10 (PeproTech, cat. 100-26), 500 nM SB-431542 (Selleckchem, cat. S1067), and 10 nM gastrin (Tocris Bioscience, cat. 3006). […]

Nc1ccn(C2OC(CO)C(O)C2(F)F)c(=O)n1 (centres undefined) + C#Cc1c(F)ccc2cc(O)cc(-c3ncc4c(N5CC6CCC(C5)N6)nc(OCC56CCCN5CC(F)C6)nc4c3F)c12
IC50 (curve of first compound, second compound 0.0316 µM): 18.2 nM | IC50 (curve of first compound, second compound 0.1 µM): 18.5 nM | IC50 (curve of first compound, second compound 0.316 µM): 18.5 nM | IC50 (curve of first compound, second compound 1 µM): 18.1 nM | IC50 (curve of first compound, second compound 3.16 µM): 18.5 nM | IC50 (curve of first compound, second compound 10 µM): 17.8 nM | viability, T/C (second compound 0.0316 µM, first compound 0.00316 µM): 97.9% | viability, T/C (second compound 0.0316 µM, first compound 0.01 µM): 106% | viability, T/C (second compound 0.0316 µM, first compound 0.0316 µM): 1.73% | viability, T/C (second compound 0.0316 µM, first compound 0.1 µM): 1.71% | viability, T/C (second compound 0.0316 µM, first compound 0.316 µM): 1.77% | viability, T/C (second compound 0.0316 µM, first compound 1 µM): 0.97% | viability, T/C (second compound 0.1 µM, first compound 0.00316 µM): 99.5% | viability, T/C (second compound 0.1 µM, first compound 0.01 µM): 111% | viability, T/C (second compound 0.1 µM, first compound 0.0316 µM): 2.14% | viability, T/C (second compound 0.1 µM, first compound 0.1 µM): 1.9% | viability, T/C (second compound 0.1 µM, first compound 0.316 µM): 0.95% | viability, T/C (second compound 0.1 µM, first compound 1 µM): 1.51% | viability, T/C (second compound 0.316 µM, first compound 0.00316 µM): 102% | viability, T/C (second compound 0.316 µM, first compound 0.01 µM): 106% | viability, T/C (second compound 0.316 µM, first compound 0.0316 µM): 2.97% | viability, T/C (second compound 0.316 µM, first compound 0.1 µM): 2.03% | viability, T/C (second compound 0.316 µM, first compound 0.316 µM): 1.39% | viability, T/C (second compound 0.316 µM, first compound 1 µM): 1.19% | viability, T/C (second compound 1 µM, first compound 0.00316 µM): 97.4% | viability, T/C (second compound 1 µM, first compound 0.01 µM): 105% | viability, T/C (second compound 1 µM, first compound 0.0316 µM): 1.48% | viability, T/C (second compound 1 µM, first compound 0.1 µM): 1.24% | viability, T/C (second compound 1 µM, first compound 0.316 µM): 0.95% | viability, T/C (second compound 1 µM, first compound 1 µM): 0.85% | viability, T/C (second compound 3.16 µM, first compound 0.00316 µM): 97.4% | viability, T/C (second compound 3.16 µM, first compound 0.01 µM): 108% | viability, T/C (second compound 3.16 µM, first compound 0.0316 µM): 3.7% | viability, T/C (second compound 3.16 µM, first compound 0.1 µM): 1.57% | viability, T/C (second compound 3.16 µM, first compound 0.316 µM): 1.67% | viability, T/C (second compound 3.16 µM, first compound 1 µM): 1.18% | viability, T/C (second compound 10 µM, first compound 0.00316 µM): 102% | viability, T/C (second compound 10 µM, first compound 0.01 µM): 97.2% | viability, T/C (second compound 10 µM, first compound 0.0316 µM): 2.56% | viability, T/C (second compound 10 µM, first compound 0.1 µM): 1.28% | viability, T/C (second compound 10 µM, first compound 0.316 µM): 1.24% | viability, T/C (second compound 10 µM, first compound 1 µM): 0.87%

O=C(c1ccc(F)c(F)c1Nc1ccc(I)cc1F)N1CC(O)([C@@H]2CCCCN2)C1
viability, T/C (compound 0.00316 µM): 105% [middle of 4 runs] | viability, T/C (compound 0.01 µM): 95.4% [middle of 4 runs] | viability, T/C (compound 0.1 µM): 96.1% [middle of 4 runs] | viability, T/C (compound 0.316 µM): 115% [middle of 4 runs] | IC50 (curve of compound): > 1000 nM and 672 nM and 724 nM

C=CC(=O)Nc1cc(Nc2nccc(-c3cn(C)c4ccccc34)n2)c(OC)cc1N(C)CCN(C)C + CCn1c(-c2cc(N3CCN(C)CC3)cnc2C(C)OC)c2c3cc(ccc31)-c1csc(n1)CC(NC(=O)C1CC1C)C(=O)N1CCCC(N1)C(=O)OCC(C)(C)C2
IC50 (curve of first compound, second compound 0.000949 µM): > 1000 nM | IC50 (curve of first compound, second compound 0.003 µM): > 1000 nM | IC50 (curve of first compound, second compound 0.00949 µM): > 1000 nM | IC50 (curve of first compound, second compound 0.03 µM): 120 nM | IC50 (curve of first compound, second compound 0.0949 µM): < 3.16 nM | IC50 (curve of first compound, second compound 0.3 µM): < 3.16 nM | viability, T/C (second compound 0.000949 µM, first compound 0.00316 µM): 97.3% | viability, T/C (second compound 0.000949 µM, first compound 0.01 µM): 95% | viability, T/C (second compound 0.000949 µM, first compound 0.0316 µM): 103% | viability, T/C (second compound 0.000949 µM, first compound 0.1 µM): 94.9% | viability, T/C (second compound 0.000949 µM, first compound 0.316 µM): 105% | viability, T/C (second compound 0.000949 µM, first compound 1 µM): 103% | viability, T/C (second compound 0.003 µM, first compound 0.00316 µM): 87.2% | viability, T/C (second compound 0.003 µM, first compound 0.01 µM): 95.3% | viability, T/C (second compound 0.003 µM, first compound 0.0316 µM): 98.8% | viability, T/C (second compound 0.003 µM, first compound 0.1 µM): 98.4% | viability, T/C (second compound 0.003 µM, first compound 0.316 µM): 103% | viability, T/C (second compound 0.003 µM, first compound 1 µM): 106% | viability, T/C (second compound 0.00949 µM, first compound 0.00316 µM): 108% | viability, T/C (second compound 0.00949 µM, first compound 0.01 µM): 112% | viability, T/C (second compound 0.00949 µM, first compound 0.0316 µM): 112% | viability, T/C (second compound 0.00949 µM, first compound 0.1 µM): 114% | viability, T/C (second compound 0.00949 µM, first compound 0.316 µM): 111% | viability, T/C (second compound 0.00949 µM, first compound 1 µM): 112% | viability, T/C (second compound 0.03 µM, first compound 0.00316 µM): 54.3% | viability, T/C (second compound 0.03 µM, first compound 0.01 µM): 46.8% | viability, T/C (second compound 0.03 µM, first compound 0.0316 µM): 59.9% | viability, T/C (second compound 0.03 µM, first compound 0.1 µM): 49.9% | viability, T/C (second compound 0.03 µM, first compound 0.316 µM): 42.2% | viability, T/C (second compound 0.03 µM, first compound 1 µM): 9.94% | viability, T/C (second compound 0.0949 µM, first compound 0.00316 µM): 7.68% | viability, T/C (second compound 0.0949 µM, first compound 0.01 µM): 6.73% | viability, T/C (second compound 0.0949 µM, first compound 0.0316 µM): 7.23% | viability, T/C (second compound 0.0949 µM, first compound 0.1 µM): 6.05% | viability, T/C (second compound 0.0949 µM, first compound 0.316 µM): 5.18% | viability, T/C (second compound 0.0949 µM, first compound 1 µM): 1.96% | viability, T/C (second compound 0.3 µM, first compound 0.00316 µM): 4.84% | viability, T/C (second compound 0.3 µM, first compound 0.01 µM): 4.08% | viability, T/C (second compound 0.3 µM, first compound 0.0316 µM): 4.06% | viability, T/C (second compound 0.3 µM, first compound 0.1 µM): 3.89% | viability, T/C (second compound 0.3 µM, first compound 0.316 µM): 3.59% | viability, T/C (second compound 0.3 µM, first compound 1 µM): 1.46%
